The experiment has as its system spontaneous hypertensive rats. The experiment in a line: Blood pressure and heart rate in conscious spontaneous hypertensive rats after intraperitoneal injection. The conditions noted are these: alone. In kind it is in vivo. The protocol: Adult spontaneous hypertensive rats (6 months of age) were anesthetized by ether inhalation. The femoral artery was dissected and cannulated, and the catheter was connected to a strain-gauge blood pressure transducer. When the animals were fully awake, they were restrained and the systolic and diastolic arterial blood pressure were continuously recorded. An observation period of at least 30 min preceded the administration of the test compound. All test compounds were dissolved in 20% polypropylene glycol and injected intraperitoneally. After administration of the test drug the systolic and diastolic arterial blood pressure and the heart rate were recorded during a period of 120 minutes.

The mark [1] stands for this setting: 1.25 mpk i.p., treated vs untreated animals.

The values below come from US6545040B1, “Method of lowering the blood pressure” (Janssen Pharmaceutica N.V., priority 1988, dated 2003).

For `CC(C)NCC(O)COc1ccc(CC(N)=O)cc1` (stereo not drawn) [Atenolol, atenolol], for the setting “10 mpk i.p.”, the “Δ% change in diastolic blood pressure (DBP), average 120 min” value (“Δ% change in diastolic blood pressure” below) was “+5.9%”; the “Δ% change in heart rate (HR), average 120 min” value (shortened to “Δ% change in heart rate (HR)”) is reported as −28.1%; the “Δ% change in systolic blood pressure (SBP), average 120 min” value (from here on “Δ% change in systolic blood pressure”) is reported as −3.7%.
For the compound `NNc1nncc2ccccc12` [Hydralazine, hydralazine], under “0.63 mpk i.p.”, the “Δ% change in diastolic blood pressure” value is on record as −9.9%; the “Δ% change in heart rate (HR)” value is −1.45%; the “Δ% change in systolic blood pressure” value is reported as −7.5%.
Turning to `COCCc1ccc(OCC(O)CNC(C)C)cc1` (stereo not drawn) [Metoprolol, metoprolol], for the setting “10 mpk i.p.”, the “Δ% change in diastolic blood pressure” value is reported as “+12.8%”; the “Δ% change in heart rate (HR)” value was −16.6%; the “Δ% change in systolic blood pressure” value is −1.2%.
As to `Cc1ccc(N(CC2=NCCN2)c2cccc(O)c2)cc1` [Phentolamine, phentolamine], where the note is “0.63 mpk i.p.”, the “Δ% change in diastolic blood pressure” value was −13.1%; the “Δ% change in heart rate (HR)” value was “+5.1%”; the “Δ% change in systolic blood pressure” value is recorded as −9.85%.
Take `COc1cc2nc(N3CCN(C(=O)c4ccco4)CC3)nc(N)c2cc1OC` [Prazosin, prazosin]: for the setting “0.01 mpk i.p.”, the “Δ% change in diastolic blood pressure” value is on record as −11.3%; the “Δ% change in heart rate (HR)” value is on record as “+1.6%”; the “Δ% change in systolic blood pressure” value is recorded as −10.9%.
With `CC(C)NCC(O)COc1cccc2ccccc12` (stereo not drawn) [Propranolol, propranolol], for the setting “5 mpk i.p.”, the “Δ% change in diastolic blood pressure” value was “+12.4%”; the “Δ% change in heart rate (HR)” value is −20.7%; the “Δ% change in systolic blood pressure” value is −2%.
For `O[C@@H](CNC[C@H](O)[C@H]1CCc2cc(F)ccc2O1)[C@@H]1CCc2cc(F)ccc2O1` [compound 1], under setting [1], the “Δ% change in diastolic blood pressure” value is listed as “+2.1%”; the “Δ% change in heart rate (HR)” value was found to be 0.5%; the “Δ% change in systolic blood pressure” value is on record as 0%. Under “2.5 mpk i.p.”, the “Δ% change in diastolic blood pressure” value is given as 0%; the “Δ% change in heart rate (HR)” value was 0%; the “Δ% change in systolic blood pressure” value is −7%.
